Experimental data as given in patent US20080153822A1, “Methods of treating pain” (priority 2006, published 2008).

Key:
[1] = tested on: CDKs; settings: Current Opinion in Pharmacology, 2003(3): 362-370; cited from earlier work
[2] = tested on: TNFα; assay: LPS in vivo assay (model of cytokine repression in vivo); parameters: species or system mice; settings: 30 mg/kg single p.o. dose 30 min prior to LPS; blood serum 90 min after LPS; ELISA; FIG. 3
Protocol: For the LPS induced model of septic shock, mice receive an intraperitoneal (i.p.) injection of 30 μg bacterial Lipopolysaccharide (LPS; L2630 SIGMA) in saline. Said LPS-mediated initiation of the inflammatory signalling cascade results in increasing blood serum concentrations of cytokines such as e.g. TNFα, IL-6 and IL1β. Blood can be taken from these animals at defined time points. Thereafter, serum will be separated and the samples can be stored at −80° C. until cytokine concentrations are measured using commercial ELISA assays. (A L Moreira et al., Braz J Med Biol Res 1997; 30:1199-1207).
Wildtype mice (strain C3HeB/FeJ) (age, sex and weight matched) were injected with 30 μg LPS (SIGMA) intraperitoneally. 90 minutes after LPS administration, these animals were anaesthetized with 0.1 ml/10 g bodyweight Ketamine-Rompun (50/20 mg/ml) and blood for serum preparation was taken via cardiac puncture.
Pharmacological treatment groups (n=4) of LPS mice received per os (p.o.) injections of CDK-inhibiting compounds or the vehicle (negative control), respectively. […]
Serum concentrations of TNF alpha and IL6 within the samples were measured by using commercial ELISA Kits (Natutec) according to the manufacturers instructions. […]

[3] = tested on: LPS induced THP-1 macrophages; assay: In vitro THP-1 assay (LPS-induced cytokine expression); type: cell-based, human
Protocol: The human THP-1 cell line can be utilized as an in vitro model of cytokine expression as mediated by Lipopolysaccharide (LPS) or Tumor Necrosis Factorα [TNFα].
Monocytic THP-1 cells (ATCC; TIB-202) can be differentiated into macrophage-like cells expressing pro-inflammatory cytokines like TNFα, IL6 and IL10 upon induction with LPS or by TNFα (autocrine induction) itself.
THP-1 cells are grown in modified RPMI-1640 medium (ATCC, Cat. No. 30-2001) supplemented with 10% FCS and 1% Pen/Strep. For cytokine inhibition assays, cells are seeded at a density of 5×10^5 cells/ml into 6-well plates in standard growth medium supplemented with 100 ng/ml PMA (Sigma, P1585) to induce differentiation into macrophage-like cells. After 24 hours, the medium is replaced with standard growth medium (without PMA) and the cells are incubated for another 48 hours to complete differentiation.
After 72 h of differentiation, the medium is replaced with serum free growth medium, and CDK-inhibiting compounds as well as reference compounds such as positive and negative controls, each dissolved in DMSO are added at concentrations ranging from 0.5 to 5 μM (final concentration of DMSO in the well is 0.1%). Cells are incubated for 60 min with compounds prior to stimulation with 100 ng/ml LPS (Sigma, L2630) for another 4-48 hours. Supernatants are collected and assayed immediately for cytokine expression, e.g. for TNFα, IL-6 and IL-1β using commercially available sandwich ELISA assays (eBioscience, Cat. No 88-7346, 88-7066, 88-7010) or kept frozen at […] until evaluation.
Concentrations of TNFα, IL6 and IL1β within the cell culture supernatants are measured by using commercial ELISA Kits (eBioscience) according to the manufacturer's instructions.
Compound #133 was administered to differentiated THP-1 cells in triplicates as described above (see section 2.). After 60 min of pre-incubation with test or reference compound (a p38 inhibitor and an IKK-inhibitor, respectively) alone, cells were stimulated with LPS. […]

[4] = tested on: TNF α; assay: In vitro human whole blood assay (cytokine inhibition); type: cell-based; settings: for TNF α levels reduced: human whole blood
Protocol: […]. For this purpose, human heparinised whole blood from healthy donors was diluted 1:5 with medium (RPMI 1640, e.g. ATCC #30-2001, supplemented with 4.5 g/L glucose, 4 mM L-glutamine, pyruvate, 1250 U sodium-heparin and 1% Penicillin/Streptomycin), incubated with the anti-inflammatory compound or solvent for 30-60 minutes and then stimulated with 20 ng/ml to 1 μg/ml LPS or SEB for 3 to 48 hours. Supernatants were harvested and analysed for cytokine content, e.g. by ELISA.

[5] = target: T1, CDK9/CycT (Homo sapiens, UniProt P50750); assay: In vitro kinase inhibition assay; type: biochemical; settings: 1 μM ATP, 33P FlashPlate assay
T1 construct: host or cells: Sf9 insect cells, baculovirus
Protocol: IC50 profiles of the compounds according to general Formula I or Ia of the present invention can be determined for cyclin-dependent kinases CDK2/CycA, CDK4/CycD1, CDK6/CycD1 and CDK9/CycT in enzymatic kinase inhibition assays in vitro. IC50 values as obtained in these assays are used for evaluating the specific selectivity and potency of the compounds with respect to CDK9 inhibition.
Compounds are used as 1×10^−2 M stock solutions in 100% DMSO, 100 μl each in column 2 of three 96-well V-shaped microtiterplates (in the following, said plates are referred to as “master plates”). […]
For the determination of inhibitory profiles, the following 4 protein kinases are used: CDK2/CycA, CDK4/CycD1, CDK6/CycD1 and CDK9/CycT. […] The purity of each kinase is determined by SDS-PAGE/silver staining and the identity of each kinase is verified by western blot analysis with kinase specific antibodies or by mass spectroscopy. […]
Reaction mixtures are incubated at 30° C. for 80 minutes. […] Incorporation of ^33P is determined with a microplate scintillation counter (Microbeta, Wallac).
The median value of the counts in column 1 (n=8) of each assay plate is defined as “low control”. This value reflects unspecific binding of radioactivity to the plate in the absence of a protein kinase but in the presence of the substrate. […]

T1 sequence (P50750 whole entry): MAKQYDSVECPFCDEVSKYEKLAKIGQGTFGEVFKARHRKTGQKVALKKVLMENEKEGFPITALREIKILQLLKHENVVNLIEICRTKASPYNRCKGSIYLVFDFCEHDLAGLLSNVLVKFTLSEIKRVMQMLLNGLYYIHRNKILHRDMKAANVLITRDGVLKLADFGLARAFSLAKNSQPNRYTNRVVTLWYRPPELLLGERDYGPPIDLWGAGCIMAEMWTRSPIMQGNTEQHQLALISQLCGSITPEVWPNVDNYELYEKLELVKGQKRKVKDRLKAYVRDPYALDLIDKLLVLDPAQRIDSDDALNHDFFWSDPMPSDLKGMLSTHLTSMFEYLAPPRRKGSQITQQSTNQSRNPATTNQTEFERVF
T1 sequence (O60563 whole entry partner): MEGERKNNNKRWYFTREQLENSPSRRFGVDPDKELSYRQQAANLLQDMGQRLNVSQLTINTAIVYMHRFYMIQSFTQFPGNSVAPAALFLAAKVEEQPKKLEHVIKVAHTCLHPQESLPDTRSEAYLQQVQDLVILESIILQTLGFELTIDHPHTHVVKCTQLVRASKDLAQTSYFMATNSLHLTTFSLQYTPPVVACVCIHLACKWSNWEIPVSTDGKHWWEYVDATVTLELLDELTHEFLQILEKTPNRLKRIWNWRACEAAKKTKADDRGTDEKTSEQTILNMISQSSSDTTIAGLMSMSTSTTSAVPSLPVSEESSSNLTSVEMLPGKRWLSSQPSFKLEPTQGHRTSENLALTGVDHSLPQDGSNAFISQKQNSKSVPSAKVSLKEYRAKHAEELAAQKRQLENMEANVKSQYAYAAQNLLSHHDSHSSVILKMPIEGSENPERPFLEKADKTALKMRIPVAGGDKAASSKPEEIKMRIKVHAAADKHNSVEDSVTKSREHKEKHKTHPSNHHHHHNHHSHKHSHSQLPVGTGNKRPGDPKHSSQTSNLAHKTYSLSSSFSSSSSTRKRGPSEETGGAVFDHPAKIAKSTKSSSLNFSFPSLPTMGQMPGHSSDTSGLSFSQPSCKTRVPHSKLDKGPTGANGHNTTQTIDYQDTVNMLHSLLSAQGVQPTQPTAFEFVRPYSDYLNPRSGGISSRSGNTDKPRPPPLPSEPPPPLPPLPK

## CCn1cnc2c(Nc3cccc(Cl)c3)nc(N[C@@H]3CCCC[C@@H]3N)nc21 [CGP74514A]
[1]
  inhibitory activity against CDKs 4 and 6: no inhibitory activity
  selectivity for a specific CDK: greater selectivity for CDKs 1, 2 and 5

## COc1ccccc1-c1ccnc(Nc2cccc(S(C)(=O)=O)c2)n1 [Compound #133]
[2]
  reduction of LPS-induced TNFα level (signalα signal) compared to the DMSO vehicle control: 50%
[3]; at each concentration, FIG. 4
  signalα signal compared to the DMSO (vehicle control): significantly reduced
[3]; differentiated THP-1 cells, 60 min pre-incubation, LPS 4-48 h
  effect on TNFα and IL6 protein concentration in the cell supernatant versus vehicle (DMSO): significant inhibitory effect
[3]; differentiated THP-1 cells, LPS 100 ng/ml, supernatant ELISA, FIG. 4
  reduction of LPS-induced cytokine levels (TNFα, IL6, IL1β): up to 100%
[4]; 0.3 μM
  TNF α levels reduced: 15%
[4]; 3 μM
  TNF α levels reduced: 60%
[4]; 10 μM
  TNF α levels reduced: 85%
[4]; 30 μM
  TNF α levels reduced: 94%
[4]; Homo sapiens, deduced from the % reduction data
  IC50: < 3000 nM
[5]
  IC50: 37.6 nM

## CN1CC[C@H](c2c(O)cc(O)c3c(=O)cc(-c4ccccc4Cl)oc23)[C@H](O)C1 [Flavopiridol]
[1]
  selectivity for a specific CDK: not particularly selective for a specific CDK

## CC[C@H](CO)Nc1nc(NCc2ccccc2)c2ncn(C(C)C)c2n1 [roscovitine]
[1]
  inhibitory activity against CDKs 4 and 6: no inhibitory activity
  selectivity for a specific CDK: greater selectivity for CDKs 1, 2 and 5

## purvanolols
[1]
  inhibitory activity against CDKs 4 and 6: no inhibitory activity
  selectivity for a specific CDK: greater selectivity for CDKs 1, 2 and 5
